Where two headings read alike, the source gives them in different places.
Experiments:
[1] = test system: Influenza A H1N1 virus; experiment: microbe, parasite or virus in culture; conditions: H1N1, MDCK
[2] = in vitro; conditions: dog
Procedure: (§1) 2. […] The maximum non-toxic concentration (TC0) of the medicament was taken as the minimum dilution times of the medicament without cytopathic changes, and the median toxic concentration (TC50) of the medicament was calculated by the Reed-Muench formula. 3. Experimental results
(§2) • (1) Medicaments: same as Embodiment 5; • (2) Other experimental materials were the same as those in Embodiment 3. 2. Experimental procedure: refer to Embodiment 3. 3. Experimental results

[3] = test system: African green monkey kidney cells (Vero-E6 cells); experiment: Toxicity to African green monkey kidney cells (Vero-E6), CCK-8, 48 hours; conditions: Vero-E6 cells; for TC0 (maximum non-toxic concentration): 48 hours, CCK-8
Description: (§3) • (1) Medicaments: experimental group, tannic acid; control group, Remdesivir (purchased from Shanghai TopScience Technology Co., Ltd.); • (2) Cell line: African green monkey kidney cells (Vero-E6 cells); • (3) Others: MEM medium; 96-well culture plate. 2. […] 3. Experimental results
(§4) • (1) Medicaments: in the experimental group, tannic acid was mixed with catechin, resveratrol, and zinc gluconate according to a mass ratio of 1:1 to prepare into three pharmaceutical compositions; in the control group, Remdesivir (purchased from Shanghai TopScience Technology Co., Ltd.); • (2) Other experimental materials were the same as those in Embodiment 1. 2. Experimental steps: refer to Embodiment 1. 3. Experimental results

[4] = as above; conditions: African green monkey
Description: as §3, §4

[5] = test system: SARS-CoV-2 virus; conditions: SARS-CoV-2, Vero-E6 cells; […]
[6] = test system: SARS-CoV-2 virus; experiment: microbe, parasite or virus in culture
[7] = test system: canine kidney epithelial cells (MDCK cells); experiment: Toxicity to canine kidney epithelial cells (MDCK), cytopathic changes; conditions: MDCK cells, cytopathic changes
Procedure: as §1, §2

[8] = Severe acute respiratory syndrome coronavirus 2, Vero C1008, 48 h, read-out: IC50 (median inhibitory concentration)

Structure (SMILES)	IC50 ([1]; 48 h, read-out: IC50 (median inhibitory concentration)) [µM]	IC50 ([1]; Influenza A H1N1, MDCK cells, compositions, mass ratio 1:1) [µg/mL]	CC50 [2] [µM]	TC0 (maximum non-toxic concentration) [3] [µM]	TC0 ([3]; compositions, mass ratio 1:1) [µg/mL]	TC50 ([3]; compositions, mass ratio 1:1) [µg/mL]	CC50 at 48 h [4] [µM]	SI [5]	IC50 ([6]; Severe acute respiratory syndrome coronavirus 2, Vero C1008) [µg/mL]	IC50 [6, 8] [µM]	TC0 (maximum non-toxic concentration) [7] [µM]
NC(=O)c1ncn([C@@H]2O[C@H](CO)[C@@H](O)[C@H]2O)n1 [Ribavirin]	22.6 ± 0.04	5.52 ± 0.03	1310								
CCC(CC)COC(=O)[C@H](C)N[P@](=O)(OC[C@H]1O[C@@](C#N)(c2ccc3c(N)ncnn23)[C@H](O)[C@@H]1O)Oc1ccccc1 [Remdesivir]				52.8	31.816	63.633	106	162.21	0.392 ± 0.003	0.651 ± 0.013	
O=C(OC[C@H]1O[C@@H](OC(=O)c2cc(O)c(O)c(OC(=O)c3cc(O)c(O)c(O)c3)c2)[C@H](OC(=O)c2cc(O)c(O)c(OC(=O)c3cc(O)c(O)c(O)c3)c2)[C@@H](OC(=O)c2cc(O)c(O)c(OC(=O)c3cc(O)c(O)c(O)c3)c2)[C@@H]1OC(=O)c1cc(O)c(O)c(OC(=O)c2cc(O)c(O)c(O)c2)c1)c1cc(O)c(O)c(OC(=O)c2cc(O)c(O)c(O)c2)c1 [Tannic acid, tannic acid]			752	11.8			23.5			0.0032	376.21
